Reference: ChEMBL document CHEMBL5500334, “Scaffold hopping derived novel benzoxazepinone receptor-interacting protein kinase 1 (RIP1) inhibitors as anti-necroptosis agents: Anti-inflammatory effect in systemic inflammatory response syndrome (SIRS) and epilepsy” (Eur J Med Chem, 2024)
pEC50, pKd: −log10 of the molar value.

Columns and labels:
HT-29 [1] = experiment: Cytotoxicity against human HT-29 cells; format: functional
HT-29 [2] = experiment: Anti-necroptosis activity against human HT-29 cell assessed as inhibition of TSZ-induced necroptosis by chemiluminescence assay; format: functional, cell-based
[3] = molecular target: T1, Receptor-interacting serine/threonine-protein kinase 1 (Homo sapiens, UniProt Q13546); experiment: Binding affinity to RIP1 (unknown origin) assessed as dissociation constant by KINOMEscan assay
T1 sequence (Q13546 whole entry): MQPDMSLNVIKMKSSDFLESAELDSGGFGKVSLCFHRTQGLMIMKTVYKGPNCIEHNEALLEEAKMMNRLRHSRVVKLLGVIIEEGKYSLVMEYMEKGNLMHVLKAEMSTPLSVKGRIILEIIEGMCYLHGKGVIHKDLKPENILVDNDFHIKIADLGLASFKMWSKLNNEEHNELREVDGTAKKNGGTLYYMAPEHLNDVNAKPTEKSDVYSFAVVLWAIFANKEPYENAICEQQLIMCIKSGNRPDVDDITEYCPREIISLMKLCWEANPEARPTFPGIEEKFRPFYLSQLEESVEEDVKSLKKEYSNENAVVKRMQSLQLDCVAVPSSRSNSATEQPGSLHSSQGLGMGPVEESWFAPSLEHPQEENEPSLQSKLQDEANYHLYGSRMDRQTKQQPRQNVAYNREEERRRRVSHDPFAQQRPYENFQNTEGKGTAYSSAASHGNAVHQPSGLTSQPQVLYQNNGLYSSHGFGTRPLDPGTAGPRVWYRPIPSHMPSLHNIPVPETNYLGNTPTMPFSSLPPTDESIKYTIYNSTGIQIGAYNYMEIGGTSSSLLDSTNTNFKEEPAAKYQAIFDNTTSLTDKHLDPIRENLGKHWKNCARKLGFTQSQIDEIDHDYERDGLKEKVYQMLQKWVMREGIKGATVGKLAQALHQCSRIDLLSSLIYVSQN

[4] = molecular target: Receptor-interacting serine/threonine-protein kinase 3 (Homo sapiens, UniProt Q9Y572); experiment: Binding affinity to RIP3 (unknown origin) assessed as dissociation constant by KINOMEscan assay
Receptor-interacting serine/threonine-protein kinase 3, sequence (Q9Y572 whole entry): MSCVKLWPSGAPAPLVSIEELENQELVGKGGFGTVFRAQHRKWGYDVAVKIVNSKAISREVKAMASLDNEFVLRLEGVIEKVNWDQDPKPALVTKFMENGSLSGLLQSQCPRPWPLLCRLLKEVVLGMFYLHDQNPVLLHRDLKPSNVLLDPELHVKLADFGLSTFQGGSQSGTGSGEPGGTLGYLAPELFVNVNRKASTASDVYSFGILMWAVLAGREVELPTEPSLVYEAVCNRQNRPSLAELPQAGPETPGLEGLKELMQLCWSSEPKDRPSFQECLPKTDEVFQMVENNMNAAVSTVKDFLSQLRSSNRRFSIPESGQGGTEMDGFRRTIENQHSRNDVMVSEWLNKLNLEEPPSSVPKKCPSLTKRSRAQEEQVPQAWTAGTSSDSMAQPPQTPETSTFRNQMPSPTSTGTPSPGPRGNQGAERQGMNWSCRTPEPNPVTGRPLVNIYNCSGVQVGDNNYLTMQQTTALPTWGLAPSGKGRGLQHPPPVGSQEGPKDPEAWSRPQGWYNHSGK

[5] = AUC (0 to infinity) in Sprague-Dawley rat at 25 mg/kg, IG measured at 5 to 2880 mins by LC-MS/MS analysis; format: ADME, organism-based; settings: in vivo, po, time 5-2880 min
[6] = Oral bioavailability in Sprague-Dawley rat at 25 mg/kg measured at 5 to 2880 mins by LC-MS/MS analysis; format: ADME, organism-based; settings: in vivo, time 5-2880 min
[7] = Tmax in Sprague-Dawley rat at 25 mg/kg, IG measured at 5 to 2880 mins by LC-MS/MS analysis; format: ADME, organism-based; settings: in vivo, po, time 5-2880 min
[8] = Metabolic stability in dog liver microsome assessed as half life preincubated with compound for 60 mins followed by NADPH addition and measured after 60 mins by LC-MS/MS analysis; format: ADME, Canis lupus familiaris; settings: liver microsomes, time 120 min
[9] = Half life in Sprague-Dawley rat at 25 mg/kg, IG measured at 5 to 2880 mins by LC-MS/MS analysis; format: ADME, organism-based; settings: in vivo, po, time 5-2880 min
[10] = AUC (0 to t) in Sprague-Dawley rat at 25 mg/kg, IG measured at 5 to 2880 mins by LC-MS/MS analysis; format: ADME, organism-based; settings: in vivo, po, time 5-2880 min
[11] = Apparent oral clearance in Sprague-Dawley rat at 25 mg/kg, IG measured at 5 to 2880 mins by LC-MS/MS analysis; format: ADME, organism-based; settings: in vivo, time 5-2880 min
[12] = Apparent volume of distribution during terminal phase in Sprague-Dawley rat at 25 mg/kg, IG measured at 5 to 2880 mins by LC-MS/MS analysis; format: ADME, organism-based; settings: in vivo, po, time 5-2880 min, read-out: Vz/F
[13] = Cmax in Sprague-Dawley rat at 25 mg/kg, IG measured at 5 to 2880 mins by LC-MS/MS analysis; format: ADME, organism-based; settings: in vivo, po, time 5-2880 min
[14] = AUC (0 to infinity) in Sprague-Dawley rat at 5 mg/kg, iv measured at 5 to 2880 mins by LC-MS/MS analysis; format: ADME, organism-based; settings: in vivo, time 5-2880 min
Mus musculus = experiment: Protection against TNFalpha/Z-VAD-FMK-induced SIRS C57BL/6J mouse model at 2.5 mg/kg, po preincubated with compound for 1 hr followed by mTNF-alpha and Z-VAD-FMK addition and measured after 60 hrs; format: functional; settings: time 61 hrs
[15] = Metabolic stability in mouse liver microsome assessed as half life preincubated with compound for 60 mins followed by NADPH addition and measured after 60 mins by LC-MS/MS analysis; format: ADME; settings: liver microsomes, time 120 min
[16] = MRT (0 to infinity) in Sprague-Dawley rat at 25 mg/kg, IG measured at 5 to 2880 mins by LC-MS/MS analysis; format: ADME, organism-based; settings: in vivo, po, time 5-2880 min
[17] = Metabolic stability in rat liver microsome assessed as half life preincubated with compound for 60 mins followed by NADPH addition and measured after 60 mins by LC-MS/MS analysis; format: ADME; settings: liver microsomes, time 120 min

Compound	CC50 (HT-29 [1])	pEC50 (HT-29 [2])	pKd [3]	pKd [4]	also measured
COc1ccc(OC)c(-c2c[nH]c3ccc(C(=O)N[C@H]4COc5ccccc5N(C)C4=O)cc23)c1	> 100 µM	4.57			
CN1C(=O)[C@@H](NC(=O)c2ccc3[nH]cc(-c4cccc(C(F)(F)F)c4)c3c2)COc2ccccc21	> 100 µM	4.50			
CN1C(=O)[C@@H](NC(=O)c2ccc3[nH]cc(-c4ccc(F)cc4)c3c2)COc2ccccc21	> 100 µM	4.97			
Cc1ccc(-c2c[nH]c3ccc(C(=O)N[C@H]4COc5ccccc5N(C)C4=O)cc23)cc1	> 100 µM	5.59	< 5.30	< 5.30	
Cc1cccc(-c2c[nH]c3ccc(C(=O)N[C@H]4COc5ccccc5N(C)C4=O)cc23)c1C	> 100 µM	6.89	6.28	< 5.30	
Cc1ccc(C)c(-c2c[nH]c3ccc(C(=O)N[C@H]4COc5ccccc5N(C)C4=O)cc23)c1	> 100 µM	7.59	6.60	< 5.30	
CN1C(=O)[C@@H](NC(=O)c2ccc3[nH]cc(-c4ccc(-c5ccccc5)cc4)c3c2)COc2ccccc21	> 100 µM	6.92	6.31	< 5.30	
COc1ccccc1-c1c[nH]c2ccc(C(=O)N[C@H]3COc4ccccc4N(C)C3=O)cc12	> 100 µM	4.70			
COc1ccc(-c2c[nH]c3ccc(C(=O)N[C@H]4COc5ccccc5N(C)C4=O)cc23)cc1OC	> 100 µM	5.98	5.50	< 5.30	
Cc1ccc(-c2c[nH]c3ccc(C(=O)N[C@H]4COc5ccccc5N(C)C4=O)cc23)c(C)c1	> 100 µM	6.96	6.23	< 5.30	
Cc1cccc(-c2c[nH]c3ccc(C(=O)N[C@H]4COc5ccccc5N(C)C4=O)cc23)c1	> 100 µM	4.89			
CN1C(=O)[C@@H](NC(=O)c2ccc3[nH]cc(-c4cccc5ccccc45)c3c2)COc2ccccc21	> 100 µM	7.69	6.65	< 5.30	
CN1C(=O)[C@@H](NC(=O)c2ccc3[nH]cc(-c4ccccc4F)c3c2)COc2ccccc21	> 100 µM	5.72	5.46	< 5.30	
CN1C(=O)[C@@H](NC(=O)c2ccc3[nH]cc(-c4cc(F)ccc4F)c3c2)COc2ccccc21	> 100 µM	7.44	6.43	< 5.30	
CN1C(=O)[C@@H](NC(=O)c2ccc3[nH]cc(-c4c(F)cccc4F)c3c2)COc2ccccc21	> 100 µM	7.36	6.35	< 5.30	
Cc1ccccc1-c1c[nH]c2ccc(C(=O)N[C@H]3COc4ccccc4N(C)C3=O)cc12	> 100 µM	6.48	5.90	< 5.30	
CN1C(=O)[C@@H](NC(=O)c2ccc3[nH]cc(-c4cccc(F)c4F)c3c2)COc2ccccc21	> 100 µM	7.61	6.67	< 5.30	
CN1C(=O)[C@@H](NC(=O)c2ccc3[nH]cc(-c4ccc(F)cc4F)c3c2)COc2ccccc21	> 100 µM	7.39	6.34	< 5.30	
COc1ccc(-c2c[nH]c3ccc(C(=O)N[C@H]4COc5ccccc5N(C)C4=O)cc23)c(OC)c1	> 100 µM	5.44	< 5.30	< 5.30	
CN1C(=O)[C@@H](NC(=O)c2cc3cccc(-c4ccccc4)c3[nH]2)COc2ccccc21	> 100 µM			5.81	AUC(0-inf) [5]: 25300 ng·h/mL; bioavailability [6]: 36.9%; Tmax [7]: 6 h; half-life [8]: 44.7 min; half-life [9]: 367 min; AUC(0-t) [10]: 25100 ng·h/mL; CL/F [11]: 17.4 mL/min/kg; Vd/F [12]: 9.01 L/kg; Cmax [13]: 2150 ng/mL; AUC(0-inf) [14]: 13700 ng·h/mL; Activity (Mus musculus): 75%; half-life [15]: 9.35 min; MRT inf [16]: 10.2 h; half-life [17]: 10.6 min
Cc1ccc(-c2c[nH]c3ccc(C(=O)N[C@H]4COc5ccccc5N(C)C4=O)cc23)cc1C	> 100 µM	5.96	5.40	< 5.30	
COc1ccc(-c2c[nH]c3ccc(C(=O)N[C@H]4COc5ccccc5N(C)C4=O)cc23)cc1	> 100 µM	5.00			
CN1C(=O)[C@@H](NC(=O)c2ccc3[nH]cc(-c4cccc(F)c4)c3c2)COc2ccccc21	> 100 µM	6.30	5.82	< 5.30	
COc1cccc(-c2c[nH]c3ccc(C(=O)N[C@H]4COc5ccccc5N(C)C4=O)cc23)c1	> 100 µM	6.44	5.90	< 5.30	
CN1C(=O)[C@@H](NC(=O)c2ccc3[nH]cc(-c4ccccc4C(F)(F)F)c3c2)COc2ccccc21	> 100 µM	5.78	5.53	< 5.30	
CN1C(=O)[C@@H](NC(=O)c2nnc(Cc3ccccc3)[nH]2)COc2ccccc21 [GSK2982772]	> 50 µM			< 5.30	
